Measured values as given in patent US4442090A, “Absorption-promoting compounds, compositions thereof with pharmaceuticals and/or bases for rectal administration and method of use” (Kyoto Yakuhin Kogyo Kabushiki Kaisha, priority 1980, dated 1984).
“And” between values parts separate entries of the source, which are not always exact repeats. Equal values may be shown once.

Experiments:
[1] = Urinary excretions of β-lactam antibiotics after rectal suppository (rabbit); format: in vivo; conditions: Compound (I) 5%, Witepsol H-15
Procedure: The absorption into the circulation through the rectum of the rectal suppositories thus prepared was determined by measuring urinary excretion of the pharmacologically-active substance.
Thus, Sarcina lutea and Bacillus subtilis were used as assay organisms for penicillins and cephalosporins, respectively, and the assays were performed by the paper disk method (cultivation at 37° C. for from 15 to 20 hours).

[2] = Blood glucose level after rectal insulin administration (rabbit); format: in vivo; conditions: rectal suppository, Insulin 6 I. U., Compound (I) 5%; for Blood glucose level 0 hr.: Witepsol H-15, baseline, level at hour 0 considered 100%; for Blood glucose level 0.5 hr. / Blood glucose level 0.75 hr. / Blood glucose level 1.0 hr. / Blood glucose level 2.0 hr. / Blood glucose level […].: Witepsol H-15, relative to hour 0 = 100%
Excerpt: To measure glucose levels, blood samples were taken from the auricular vein at timed intervals and assayed by the glucose oxidase method.
The urinary excretion values in Tables 1 to 5 are percentages based on the dose administered. The blood glucose levels in Table 6 are relative blood glucose levels when the blood glucose level at hour 0 is considered to be 100%.

[3] = Urinary excretions of AB-PC after administration of AB-PC rectal suppository (human); format: in vivo; conditions: AB-PC 125 mg (potency); for Urinary excretions of AB-PC (%) (0-6 hr.): Witepsol H-15, % of dose
Procedure: The thus-obtained suppositories were administered to healthy adult male humans from the anus, and the urinary excretions of AB-PC were determined.

[4] = Urinary excretions of peptide drugs after rectal suppository (rabbit); conditions: Colistin Sodium Methanesulfonate 150,000 IU, Compound (I) 5%, Witepsol H-15
Procedure: The thus-obtained suppositories were administered to rabbits from the anus, and the urinary excretions of the pharmacologically-active substance were determined.
(§1) Each rectal suppository was administered to a depth of 2 cm from the anus of a rabbit fasted 24 hours.
(§2) To measure the urinary excretions, urine samples were collected after administration at timed intervals, diluted and assayed by the biological assay procedure.
Thus, Escherichia coli was used as assay organism and the assays were performed by the cylinder plate method (cultivation at 37° C. for 15 to 20 hours).

[5] = Urinary excretions of aminoglycoside antibiotics after rectal suppository (rabbit); conditions: Compound (I) 5%, Witepsol H-15
Procedure: The thus-obtained suppositories were administered to rabbits and the urinary excretions of the pharmacologically-active substance were determined.
as §1, §2
Thus, Bacillus subtilis was used as assay organism and the assays were performed by the cylinder plate method (cultivation at 37° C. for 15 to 20 hours).

[6] = Gentamicin sulfate 125 mg (potency)
[7] = Kanamycin sulfate 125 mg (potency)
[8] = Dibekacin sulfate 125 mg (potency)
[9] = Compound (I) 10%, Witepsol H-15, Table 3
[10] = Fortimicin sulfate 125 mg (potency)

Row | SMILES | Blood glucose level 0 hr. [2] [%] | Blood glucose level 0.5 hr. [2] [%] | Blood glucose level 0.75 hr. [2] [%] | Blood glucose level 1.0 hr. [2] [%] | Blood glucose level 2.0 hr. [2] [%] | Blood glucose level […]. [2] [%] | Urinary excretions of AB-PC (%) (0-6 hr.) ([3]; added compound 10%) | Urinary excretions (%) 0-2 hr. [4] | Urinary excretions (%) 2-4 hr. [4] | Urinary excretions (%) 4-6 hr. [4] | Urinary excretions (%) Total (0-6 hr.) [4] | Urinary excretions (%) 0-2 hr. [5, 6] [%] | Urinary excretions (%) 2-4 hr. [5, 6] [%] | Urinary excretions (%) 4-6 hr. [5, 6] [%] | Urinary excretions (%) Total (0-6 hr.) [5, 6] [%] | further results
1 | CCCC(=O)NC(C(=O)O)c1ccccc1 (racemic) [Compound 29-Na, N--Butyryl-DL-phenylglycine] | 100 | 60.0 | 50.6 | 55.0 | 111.3 | 81.2 | – | – | – | – | – | – | – | – | – | Urinary excretions (%) 0-2 hr. ([1]; 6059-S 125 mg (potency)): 47.2%; Urinary excretions (%) 2-4 hr. ([1]; 6059-S 125 mg (potency)): 8.6%; Urinary excretions (%) 4-6 hr. ([1]; 6059-S 125 mg (potency)): 2.0%; Urinary excretions (%) Total (0-6 hr.) ([1]; 6059-S 125 mg (potency)): 57.8%
2 | O=C(O)CCCCCCCCCCC(=O)O [Compound 2-Na, 1,10-Decamethylenedicarboxylic acid] | 100 | 57.0 | 50.5 | – | 98.5 | 68.5 | 25.6 | 20.5% | 9.2% | 1.8% | 31.5% | 41.2 | 9.9 | 3.1 | 53.2 | Urinary excretions (%) 0-2 hr. ([1]; Cefazolin 125 mg (potency)): 41.5%; Urinary excretions (%) 2-4 hr. ([1]; Cefazolin 125 mg (potency)): 16.9%; Urinary excretions (%) 4-6 hr. ([1]; Cefazolin 125 mg (potency)): 3.5%; Urinary excretions (%) Total (0-6 hr.) ([1]; Cefazolin 125 mg (potency)): 61.9%
3 | CCCCOc1ccc(C(=O)O)cc1 [Compound 3-Na, p-Butoxybenzoic acid] | 100 | 60.0 | – | 50.5 | 103.3 | 79.5 | 20.9 | – | – | – | – | – | – | – | – | Urinary excretions (%) 0-2 hr. ([1]; Cefmetazole 125 mg (potency)): 45.0%; Urinary excretions (%) 2-4 hr. ([1]; Cefmetazole 125 mg (potency)): 20.0%; Urinary excretions (%) 4-6 hr. ([1]; Cefmetazole 125 mg (potency)): 1.5%; Urinary excretions (%) Total (0-6 hr.) ([1]; Cefmetazole 125 mg (potency)): 66.5%; Urinary excretions (%) 0-2 hr. ([1]; FK-749 125 mg (potency)): 41.6%; Urinary excretions (%) 2-4 hr. ([1]; FK-749 125 mg (potency)): 19.2%; Urinary excretions (%) 4-6 hr. ([1]; FK-749 125 mg (potency)): 3.0%; Urinary excretions (%) Total (0-6 hr.) ([1]; FK-749 125 mg (potency)): 63.8%; Urinary excretions (%) 0-2 hr. [5, 7]: 45.1%; Urinary excretions (%) 4-6 hr. [5, 7]: 2.6%; Urinary excretions (%) Total (0-6 hr.) [5, 7]: 59.8%
4 | O=C(O)CCCCCCCCCCCC(=O)O [Compound 5-Na, 1,11-Undecamethylene dicarboxylic acid] | 100 | 60.0 | 51.7 | 55.2 | 110.3 | 80.5 | – | – | – | – | – | – | – | – | – | Urinary excretions (%) 0-2 hr. ([1]; Cefotiam 125 mg (potency)): 40.0%; Urinary excretions (%) 2-4 hr. ([1]; Cefotiam 125 mg (potency)): 8.0%; Urinary excretions (%) 4-6 hr. ([1]; Cefotiam 125 mg (potency)): 2.1%; Urinary excretions (%) Total (0-6 hr.) ([1]; Cefotiam 125 mg (potency)): 60.1%; Urinary excretions of AB-PC (%) (0-6 hr.) ([3]; Compound (I) 1%): 30.8%; Urinary excretions (%) 0-2 hr. [5, 8]: 41.1%; Urinary excretions (%) 2-4 hr. [5, 8]: 8.8%; Urinary excretions (%) 4-6 hr. [5, 8]: 1.1%; Urinary excretions (%) Total (0-6 hr.) [5, 8]: 51.0%
5 | CCCCCCCC(=O)N[C@@H](Cc1ccccc1)C(=O)O [Compound 23-Na, N--Capryloyl-L-phenylalanine] | 100 | 59.0 | – | – | 103.0 | 69.5 | – | 21.2% and 18.5% | 10.0% and 8.0% | 1.2% and 0.8% | 32.4% and 27.3% | 45.0 | 6.0 | 1.5 | 52.5 | Urinary excretions (%) 0-2 (hr.) [3, 9]: 24.0%; Urinary excretions (%) 2-4 (hr.) [3, 9]: 3.0%; Urinary excretions (%) 4-6 (hr.) [3, 9]: 1.2%; Urinary excretions (%) Total (0-6 hr.) [3, 9]: 28.2%; Urinary excretions (%) 0-2 hr. [5, 10]: 46.0%; Urinary excretions (%) 2-4 hr. [5, 10]: 8.0%; Urinary excretions (%) 4-6 hr. [5, 10]: 2.0%; Urinary excretions (%) Total (0-6 hr.) [5, 10]: 56.0%
